Experiment: Multiple ascending dose study, plasma pharmacokinetics of Compound (1) and GHB
Type: in vivo, human
Protocol: The plasma concentrations of Compound (1) and GHB in plasma in healthy human subjects were measured using liquid chromatography tandem mass-spectroscopy and evaluated using PHOENIX™ WINNONLIN® version 8.1 (Pharsight Corporation, USA) and MICROSOFT® EXCEL® (Microsoft Corporation, USA).
All randomized subjects who received Compound (1), with available pharmacokinetic (PK) data and without relevant deviations interfering with the PK evaluations, were included. Subjects who received only placebo were excluded from the PK population. In addition, the PK population was used for the summaries and analyses of all PK data.
A multiple ascending dose study was undertaken to evaluate the pharmacokinetics of multiple doses of Compound (1) in 3 cohorts of healthy subjects (with 8 subjects/cohort). Within each cohort, the subjects were randomized to receive Compound (1) or placebo at a ratio of 6:2 (active: placebo) for 7 days (or up to 9 days if the cohort included a titration period).
After fasting for at least 3 hours following a standard meal, subjects were randomized on Day 1 and the first dose of study drug (either target dose or titration dose) was administered. The first cohort of subjects (Cohort 8) received the second dose administration at approximately four hours after receiving the first dose. The subsequent […] cohorts (Cohorts 9 and 10) received only one dose per day.
For the first cohort (Cohort 8), the dose used was 6.0 g divided into two equal doses four hours apart for 7 days starting from Day 4 “Dose Day 1” to Day 10 “Dose Day 7”. Subsequent Cohorts 9, 10 received a single daily dose of 4.5 g and 6.0 g during the titration period (Day 1 for Cohort 9, Day 1 and Day 2 for Cohort 10, and after a titration period for 7 days starting from Day 4 “Dose Day 1” to Day 10 “Dose Day 7”. Cohort 11 was not conducted due to API availability.

[1] = Cohort 8 (6.0 g/day divided into equal 2 doses), Dosing Day 4
[2] = Cohort 8 (6.0 g/day divided into equal 2 doses), Dosing Day 10
[3] = Cohort 9 (4.5 g/day in a single dose), Dosing Day 4
[4] = Cohort 9 (4.5 g/day in a single dose), Dosing Day 10
[5] = Cohort 10 (6.0 g/day in a single dose), Dosing Day 4

SMILES: CC(C)[C@H](N)C(=O)OCCCC(=O)O [Compound (1), 4-((L-valyl)oxy)butanoic acid]
- Compound (1) CL/F, Max [1]: 597 L/h
- Compound (1) CL/F, Mean [1]: 431 L/h
- Compound (1) CL/F, Median [1]: 405 L/h
- Compound (1) CL/F, Min [1]: 315 L/h
- Compound (1) plasma AUC0-inf, Max [1]: 19100 ng·h/mL
- Compound (1) plasma AUC0-inf, Min [1]: 10100 ng·h/mL
- Compound (1) plasma AUC0-tlast, Max [1]: 19000 ng·h/mL
- Compound (1) plasma AUC0-tlast, Min [1]: 10000 ng·h/mL
- Compound (1) plasma Cmax, Max [1]: 16700 ng/mL
- Compound (1) plasma Cmax, Min [1]: 9600 ng/mL
- Compound (1) plasma T1/2, Max [1]: 112 min
- Compound (1) plasma T1/2, Min [1]: 13.2 min
- Compound (1) plasma Tmax, Max [1]: 270 min
- Compound (1) CL/F, Max [2]: 569 L/h
- Compound (1) CL/F, Mean [2]: 430 L/h
- Compound (1) CL/F, Median [2]: 430 L/h
- Compound (1) CL/F, Min [2]: 280 L/h
- Compound (1) plasma AUC0-inf, Max [2]: 21500 ng·h/mL
- Compound (1) plasma AUC0-inf, Min [2]: 10700 ng·h/mL
- Compound (1) plasma AUC0-tlast, Max [2]: 21400 ng·h/mL
- Compound (1) plasma AUC0-tlast, Min [2]: 10500 ng·h/mL
- Compound (1) plasma Cmax, Max [2]: 17000 ng/mL
- Compound (1) plasma Cmax, Min [2]: 8700 ng/mL
- Compound (1) plasma T1/2, Max [2]: 31.2 min
- Compound (1) plasma T1/2, Min [2]: 14.4 min
- Compound (1) plasma Tmax, Max [2]: 285 min
- Compound (1) CL/F, Max [3]: 406 L/h
- Compound (1) CL/F, Mean [3]: 378 L/h
- Compound (1) CL/F, Median [3]: 382 L/h
- Compound (1) CL/F, Min [3]: 338 L/h
- Compound (1) plasma AUC0-inf, Max [3]: 13300 ng·h/mL
- Compound (1) plasma AUC0-inf, Min [3]: 11100 ng·h/mL
- Compound (1) plasma AUC0-tlast, Max [3]: 13200 ng·h/mL
- Compound (1) plasma AUC0-tlast, Min [3]: 8300 ng·h/mL
- Compound (1) plasma Cmax, Max [3]: 17800 ng/mL
- Compound (1) plasma Cmax, Min [3]: 10500 ng/mL
- Compound (1) plasma T1/2, Max [3]: 40.8 min
- Compound (1) plasma T1/2, Min [3]: 16.8 min
- Compound (1) CL/F, Max [4]: 488 L/h
- Compound (1) CL/F, Mean [4]: 423 L/h
- Compound (1) CL/F, Median [4]: 443 L/h
- Compound (1) CL/F, Min [4]: 323 L/h
- Compound (1) plasma AUC0-inf, Max [4]: 13900 ng·h/mL
- Compound (1) plasma AUC0-inf, Min [4]: 9200 ng·h/mL
- Compound (1) plasma AUC0-tlast, Max [4]: 13800 ng·h/mL
- Compound (1) plasma AUC0-tlast, Min [4]: 9100 ng·h/mL
- Compound (1) plasma Cmax, Max [4]: 17800 ng/mL
- Compound (1) plasma Cmax, Min [4]: 9300 ng/mL
- Compound (1) plasma T1/2, Max [4]: 50.4 min
- Compound (1) plasma T1/2, Min [4]: 22.2 min
- Compound (1) CL/F, Max [5]: 684 L/h
- Compound (1) CL/F, Mean [5]: 390 L/h
- Compound (1) CL/F, Median [5]: 316 L/h
- Compound (1) CL/F, Min [5]: 265 L/h
- Compound (1) plasma AUC0-inf, Max [5]: 22700 ng·h/mL
- Compound (1) plasma AUC0-inf, Min [5]: 8800 ng·h/mL
- Compound (1) plasma AUC0-tlast, Max [5]: 22600 ng·h/mL
- Compound (1) plasma AUC0-tlast, Min [5]: 8700 ng·h/mL
- Compound (1) plasma Cmax, Max [5]: 28000 ng/mL
- Compound (1) plasma Cmax, Min [5]: 10500 ng/mL
- Compound (1) plasma T1/2, Max [5]: 30.6 min
- Compound (1) plasma T1/2, Min [5]: 20.4 min
